Reference: ChEMBL document CHEMBL4649994
Where “and” joins values, the source holds several entries; their conditions need not be identical. Equal entries are not always repeated.

What was measured:
Conditions in all cases: Compound concentration 10.0 uM, Protein concentration 2.0 uM
[1] = biological target: Bromodomain-containing protein 3 (Homo sapiens) (UniProt Q15059); assay: Thermal Shift Assay. Domain start/stop: P24-E144
[2] = biological target: Protein polybromo-1 (Homo sapiens) (UniProt Q86U86); assay: Thermal Shift Assay. Domain start/stop: H23-D159
[3] = biological target: Protein polybromo-1 (Homo sapiens) (UniProt Q86U86); assay: Thermal Shift Assay. Domain start/stop: R487-D598
[4] = biological target: Tripartite motif-containing protein 66 (Homo sapiens) (UniProt O15016); assay: Thermal Shift Assay. Domain start/stop: M1091-S1218
[5] = biological target: Histone-lysine N-methyltransferase ASH1L (Homo sapiens) (UniProt Q9NR48)
[6] = biological target: ATPase family AAA domain-containing protein 2 (Homo sapiens) (UniProt Q6PL18)
[7] = biological target: ATPase family AAA domain-containing protein 2B (Homo sapiens) (UniProt Q9ULI0)
[8] = biological target: Bromodomain adjacent to zinc finger domain protein 1A (Homo sapiens) (UniProt Q9NRL2)
[9] = biological target: Bromodomain adjacent to zinc finger domain protein 2A (Homo sapiens) (UniProt Q9UIF9)
[10] = biological target: Bromodomain adjacent to zinc finger domain protein 2B (Homo sapiens) (UniProt Q9UIF8)
[11] = biological target: Nucleosome-remodeling factor subunit BPTF (Homo sapiens) (UniProt Q12830)
[12] = biological target: Bromodomain-containing protein 1 (Homo sapiens) (UniProt O95696)
[13] = biological target: Bromodomain-containing protein 2 (Homo sapiens) (UniProt P25440)
[14] = biological target: Bromodomain-containing protein 2 (Homo sapiens) (UniProt P25440); remark: listed apart in the source
[15] = biological target: Bromodomain-containing protein 3 (Homo sapiens) (UniProt Q15059)
[16] = biological target: Bromodomain-containing protein 9 (Homo sapiens) (UniProt Q9H8M2)
[17] = biological target: Bromodomain testis-specific protein (Homo sapiens) (UniProt Q58F21)
Peregrin (Homo sapiens) [18] = biological target: Peregrin (Homo sapiens) (UniProt P55201)
[19] = biological target: Bromodomain and PHD finger-containing protein 3 (Homo sapiens) (UniProt Q9ULD4)
[20] = biological target: Bromodomain and WD repeat-containing protein 3 (Homo sapiens) (UniProt Q6RI45)
[21] = biological target: Chromatin remodeling regulator CECR2 (Homo sapiens) (UniProt Q9BXF3)
[22] = biological target: CREB-binding protein (Homo sapiens) (UniProt Q92793)
[23] = biological target: Histone acetyltransferase p300 (Homo sapiens) (UniProt Q09472)
[24] = biological target: Histone acetyltransferase KAT2A (Homo sapiens) (UniProt Q92830)
[25] = biological target: Histone acetyltransferase KAT2B (Homo sapiens) (UniProt Q92831)
[26] = biological target: Protein polybromo-1 (Homo sapiens) (UniProt Q86U86)
[27] = biological target: Protein polybromo-1 (Homo sapiens) (UniProt Q86U86); remark: listed apart in the source
[28] = biological target: Protein polybromo-1 (Homo sapiens) (UniProt Q86U86); remark: listed apart in the source
[29] = biological target: Protein polybromo-1 (Homo sapiens) (UniProt Q86U86); remark: listed apart in the source
[30] = biological target: PH-interacting protein (Homo sapiens) (UniProt Q8WWQ0)
[31] = biological target: SWI/SNF-related matrix-associated actin-dependent regulator of chromatin subfamily A member 2 (Homo sapiens) (UniProt P51531)
[32] = biological target: SWI/SNF-related matrix-associated actin-dependent regulator of chromatin subfamily A member 4 (Homo sapiens) (UniProt P51532)
[33] = biological target: Nuclear body protein SP140 (Homo sapiens) (UniProt Q13342)
[34] = biological target: Nuclear body protein SP140-like protein (Homo sapiens) (UniProt Q9H930)
[35] = biological target: Transcription initiation factor TFIID subunit 1 (Homo sapiens) (UniProt P21675)
[36] = biological target: Transcription initiation factor TFIID subunit 1 (Homo sapiens) (UniProt P21675); remark: listed apart in the source
[37] = biological target: Transcription initiation factor TFIID subunit 1-like (Homo sapiens) (UniProt Q8IZX4)
[38] = biological target: Transcription initiation factor TFIID subunit 1-like (Homo sapiens) (UniProt Q8IZX4); remark: listed apart in the source
[39] = biological target: Transcription intermediary factor 1-alpha (Homo sapiens) (UniProt O15164)
[40] = biological target: Transcription intermediary factor 1-beta (Homo sapiens) (UniProt Q13263)
Peregrin (Homo sapiens) [41] = biological target: Peregrin (Homo sapiens) (UniProt P55201); remark: listed apart in the source

Sequence of Bromodomain-containing protein 2 (Homo sapiens) (P25440 whole entry, looked up): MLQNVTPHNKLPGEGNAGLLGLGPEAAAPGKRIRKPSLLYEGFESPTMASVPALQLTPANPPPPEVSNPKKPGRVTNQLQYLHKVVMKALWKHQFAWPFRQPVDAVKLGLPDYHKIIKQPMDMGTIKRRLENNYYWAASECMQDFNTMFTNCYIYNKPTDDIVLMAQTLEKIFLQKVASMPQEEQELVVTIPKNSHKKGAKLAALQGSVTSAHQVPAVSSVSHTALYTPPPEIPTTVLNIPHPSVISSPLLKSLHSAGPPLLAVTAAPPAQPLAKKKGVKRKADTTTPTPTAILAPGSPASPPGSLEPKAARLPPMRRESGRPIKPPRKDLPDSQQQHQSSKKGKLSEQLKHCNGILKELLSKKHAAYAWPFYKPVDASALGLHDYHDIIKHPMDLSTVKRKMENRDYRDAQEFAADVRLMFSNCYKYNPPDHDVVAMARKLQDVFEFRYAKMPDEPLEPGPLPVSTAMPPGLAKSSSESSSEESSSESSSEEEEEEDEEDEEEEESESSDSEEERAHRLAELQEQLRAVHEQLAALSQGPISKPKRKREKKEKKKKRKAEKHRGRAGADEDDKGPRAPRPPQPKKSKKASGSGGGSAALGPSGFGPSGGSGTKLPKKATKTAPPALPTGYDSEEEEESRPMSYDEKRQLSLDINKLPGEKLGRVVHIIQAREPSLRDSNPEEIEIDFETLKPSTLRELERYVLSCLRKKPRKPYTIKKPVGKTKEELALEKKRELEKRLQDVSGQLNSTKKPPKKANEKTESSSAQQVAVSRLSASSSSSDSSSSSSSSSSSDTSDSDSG
Sequence of Protein polybromo-1 (Homo sapiens) (Q86U86 whole entry): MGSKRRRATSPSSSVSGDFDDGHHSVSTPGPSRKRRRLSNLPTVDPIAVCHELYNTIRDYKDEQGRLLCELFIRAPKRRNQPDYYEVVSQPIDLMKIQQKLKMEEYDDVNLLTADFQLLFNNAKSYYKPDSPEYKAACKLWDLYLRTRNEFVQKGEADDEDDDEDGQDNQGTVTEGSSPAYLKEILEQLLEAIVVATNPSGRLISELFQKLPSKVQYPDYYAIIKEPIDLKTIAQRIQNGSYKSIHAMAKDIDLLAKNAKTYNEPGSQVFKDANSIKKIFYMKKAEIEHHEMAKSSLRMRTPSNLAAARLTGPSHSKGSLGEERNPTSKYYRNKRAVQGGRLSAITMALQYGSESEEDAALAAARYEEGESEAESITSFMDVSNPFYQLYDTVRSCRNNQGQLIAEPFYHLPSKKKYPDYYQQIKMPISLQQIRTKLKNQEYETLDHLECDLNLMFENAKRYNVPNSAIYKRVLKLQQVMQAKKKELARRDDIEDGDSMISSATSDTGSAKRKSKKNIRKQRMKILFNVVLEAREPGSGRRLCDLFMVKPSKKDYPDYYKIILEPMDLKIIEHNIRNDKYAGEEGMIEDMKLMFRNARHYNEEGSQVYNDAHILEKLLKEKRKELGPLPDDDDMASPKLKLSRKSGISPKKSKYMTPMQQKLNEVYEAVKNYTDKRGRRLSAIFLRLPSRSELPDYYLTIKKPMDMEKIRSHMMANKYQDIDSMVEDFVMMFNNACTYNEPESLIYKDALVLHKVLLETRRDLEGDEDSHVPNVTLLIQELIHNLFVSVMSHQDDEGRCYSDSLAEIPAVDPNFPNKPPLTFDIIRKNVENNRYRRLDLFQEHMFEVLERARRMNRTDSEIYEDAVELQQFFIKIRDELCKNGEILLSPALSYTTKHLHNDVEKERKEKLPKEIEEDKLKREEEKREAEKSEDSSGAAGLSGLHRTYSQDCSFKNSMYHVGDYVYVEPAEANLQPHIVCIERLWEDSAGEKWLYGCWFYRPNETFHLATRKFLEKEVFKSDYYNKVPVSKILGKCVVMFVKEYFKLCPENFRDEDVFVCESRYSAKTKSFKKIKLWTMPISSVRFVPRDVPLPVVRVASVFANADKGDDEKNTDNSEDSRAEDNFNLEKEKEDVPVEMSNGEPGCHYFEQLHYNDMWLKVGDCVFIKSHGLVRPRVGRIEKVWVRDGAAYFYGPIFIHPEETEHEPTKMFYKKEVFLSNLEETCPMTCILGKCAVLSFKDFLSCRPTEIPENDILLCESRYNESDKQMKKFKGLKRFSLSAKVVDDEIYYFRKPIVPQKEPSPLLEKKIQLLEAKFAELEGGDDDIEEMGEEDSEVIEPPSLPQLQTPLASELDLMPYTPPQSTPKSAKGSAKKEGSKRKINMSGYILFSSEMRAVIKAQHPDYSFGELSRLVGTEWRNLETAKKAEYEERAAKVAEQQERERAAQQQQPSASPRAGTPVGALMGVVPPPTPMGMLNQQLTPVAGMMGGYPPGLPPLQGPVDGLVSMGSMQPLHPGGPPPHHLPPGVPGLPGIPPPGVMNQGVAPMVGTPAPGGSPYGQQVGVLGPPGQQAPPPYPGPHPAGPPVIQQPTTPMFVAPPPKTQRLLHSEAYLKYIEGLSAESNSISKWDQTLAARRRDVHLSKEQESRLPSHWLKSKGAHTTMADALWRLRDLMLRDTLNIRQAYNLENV
Sequence of Bromodomain-containing protein 3 (Homo sapiens) (Q15059 2-726 limits assumed): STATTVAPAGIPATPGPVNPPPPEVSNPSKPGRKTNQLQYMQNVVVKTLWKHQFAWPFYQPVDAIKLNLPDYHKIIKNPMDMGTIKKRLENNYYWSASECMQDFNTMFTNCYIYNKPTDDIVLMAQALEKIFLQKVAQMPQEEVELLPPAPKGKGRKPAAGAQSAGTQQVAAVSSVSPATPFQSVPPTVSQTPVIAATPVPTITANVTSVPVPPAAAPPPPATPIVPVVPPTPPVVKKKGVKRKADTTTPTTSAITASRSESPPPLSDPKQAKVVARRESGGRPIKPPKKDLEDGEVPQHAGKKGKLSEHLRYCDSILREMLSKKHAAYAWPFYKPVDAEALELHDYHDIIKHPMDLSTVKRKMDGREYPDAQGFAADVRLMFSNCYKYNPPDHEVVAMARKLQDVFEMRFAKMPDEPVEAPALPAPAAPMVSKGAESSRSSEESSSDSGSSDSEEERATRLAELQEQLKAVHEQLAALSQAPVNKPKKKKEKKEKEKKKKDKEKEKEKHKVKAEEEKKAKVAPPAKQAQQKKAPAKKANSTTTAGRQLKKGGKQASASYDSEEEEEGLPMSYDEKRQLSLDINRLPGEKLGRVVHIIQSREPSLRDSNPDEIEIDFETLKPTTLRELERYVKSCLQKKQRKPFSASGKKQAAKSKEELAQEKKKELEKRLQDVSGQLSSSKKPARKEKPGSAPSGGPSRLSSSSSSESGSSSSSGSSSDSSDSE
Sequence of Histone acetyltransferase KAT2B (Homo sapiens) (Q92831 whole entry, looked up): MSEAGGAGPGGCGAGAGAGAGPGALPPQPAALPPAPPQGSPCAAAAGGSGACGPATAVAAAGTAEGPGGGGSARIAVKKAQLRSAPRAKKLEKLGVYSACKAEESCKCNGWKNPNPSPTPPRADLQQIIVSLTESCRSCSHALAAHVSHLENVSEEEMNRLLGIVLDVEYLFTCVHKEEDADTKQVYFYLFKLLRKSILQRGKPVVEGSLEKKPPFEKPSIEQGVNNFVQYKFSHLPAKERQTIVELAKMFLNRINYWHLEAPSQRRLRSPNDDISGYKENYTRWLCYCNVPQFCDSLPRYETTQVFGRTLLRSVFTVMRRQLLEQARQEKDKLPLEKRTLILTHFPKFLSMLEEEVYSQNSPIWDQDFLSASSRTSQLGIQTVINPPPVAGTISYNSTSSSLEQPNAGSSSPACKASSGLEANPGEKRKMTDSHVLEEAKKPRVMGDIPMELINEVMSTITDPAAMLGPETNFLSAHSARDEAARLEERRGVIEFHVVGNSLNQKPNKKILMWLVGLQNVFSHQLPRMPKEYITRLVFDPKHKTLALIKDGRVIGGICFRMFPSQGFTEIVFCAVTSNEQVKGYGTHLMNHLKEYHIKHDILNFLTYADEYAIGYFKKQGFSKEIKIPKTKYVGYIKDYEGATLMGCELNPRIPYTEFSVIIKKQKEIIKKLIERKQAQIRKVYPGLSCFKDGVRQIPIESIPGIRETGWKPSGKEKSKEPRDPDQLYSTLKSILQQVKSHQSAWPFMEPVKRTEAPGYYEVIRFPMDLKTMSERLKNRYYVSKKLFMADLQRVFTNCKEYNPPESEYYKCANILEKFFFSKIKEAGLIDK
Sequence of Bromodomain-containing protein 1 (Homo sapiens) (O95696 whole entry): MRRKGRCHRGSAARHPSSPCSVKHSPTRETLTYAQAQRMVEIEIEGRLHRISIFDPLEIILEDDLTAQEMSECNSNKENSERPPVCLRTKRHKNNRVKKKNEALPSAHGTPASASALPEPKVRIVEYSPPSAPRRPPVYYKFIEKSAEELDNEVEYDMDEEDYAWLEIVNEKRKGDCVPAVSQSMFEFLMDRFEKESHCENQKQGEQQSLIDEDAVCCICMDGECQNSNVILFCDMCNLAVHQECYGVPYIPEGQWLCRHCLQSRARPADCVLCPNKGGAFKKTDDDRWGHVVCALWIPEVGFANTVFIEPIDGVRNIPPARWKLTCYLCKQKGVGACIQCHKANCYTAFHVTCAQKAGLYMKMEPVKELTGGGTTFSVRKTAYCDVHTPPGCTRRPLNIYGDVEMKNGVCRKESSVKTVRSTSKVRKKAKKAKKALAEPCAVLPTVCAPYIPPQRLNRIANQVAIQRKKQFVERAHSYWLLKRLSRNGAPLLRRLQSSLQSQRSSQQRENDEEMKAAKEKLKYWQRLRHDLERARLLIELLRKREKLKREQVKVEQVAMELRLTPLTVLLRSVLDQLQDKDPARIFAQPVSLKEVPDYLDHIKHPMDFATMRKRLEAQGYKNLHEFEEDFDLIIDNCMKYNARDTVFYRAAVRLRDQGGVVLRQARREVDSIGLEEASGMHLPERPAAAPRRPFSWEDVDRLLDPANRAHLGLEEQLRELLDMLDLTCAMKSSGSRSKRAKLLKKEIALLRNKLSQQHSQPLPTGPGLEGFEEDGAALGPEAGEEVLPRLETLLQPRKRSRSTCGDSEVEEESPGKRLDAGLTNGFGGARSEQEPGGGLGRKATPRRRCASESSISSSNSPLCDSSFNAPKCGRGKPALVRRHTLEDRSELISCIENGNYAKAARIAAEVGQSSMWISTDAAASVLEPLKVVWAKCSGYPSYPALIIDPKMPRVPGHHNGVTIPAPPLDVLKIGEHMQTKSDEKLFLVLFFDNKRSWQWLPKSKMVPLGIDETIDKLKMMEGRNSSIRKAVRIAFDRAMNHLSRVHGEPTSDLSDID

- ΔTm [1]: 3.99 °C and 5.24 °C
- ΔTm [2]: 0.75 °C
- ΔTm [3]: 1.03 °C
- ΔTm [4]: 0.42 °C
- ΔTm [5]: -0.34 °C
- ΔTm [6]: 0.71 °C
- ΔTm [7]: 0.1 °C
- ΔTm [8]: 1.62 °C
- ΔTm [9]: 1.02 °C
- ΔTm [10]: 0.66 °C and 0.25 °C
- ΔTm [11]: 0.44 °C
- ΔTm [12]: 1.19 °C and 0.62 °C
- ΔTm [13]: 4.61 °C and 3.1 °C
- ΔTm [14]: 5.32 °C
- ΔTm [15]: 4.59 °C and 5.45 °C
- ΔTm [16]: 1.96 °C
- ΔTm [17]: 2.08 °C
- ΔTm (Peregrin (Homo sapiens) [18]): 2.42 °C
- ΔTm [19]: 1.72 °C
- ΔTm [20]: 0.16 °C
- ΔTm [21]: -0.22 °C
- ΔTm [22]: 2.09 °C and 2.66 °C
- ΔTm [23]: 2.71 °C
- ΔTm [24]: 0.43 °C
- ΔTm [25]: -0.1 °C and 0.81 °C
- ΔTm [26]: 0.83 °C and -0.18 °C
- ΔTm [27]: -0.18 °C
- ΔTm [28]: 0.62 °C
- ΔTm [29]: 0.99 °C
- ΔTm [30]: 1.07 °C
- ΔTm [31]: 0.49 °C
- ΔTm [32]: 0.51 °C
- ΔTm [33]: 0.1 °C
- ΔTm [34]: 0.12 °C
- ΔTm [35]: -0.08 °C
- ΔTm [36]: 0.62 °C
- ΔTm [37]: 0.52 °C
- ΔTm [38]: 0.78 °C
- ΔTm [39]: 0.57 °C
- ΔTm [40]: 0.29 °C
- ΔTm (Peregrin (Homo sapiens) [41]): 0.68 °C
Compound: COc1ccccc1S(=O)(=O)Nc1ccc2c(c1)CN(C)C(=O)N2
